The subject of assay [1] is eIF4E nuclear bodies in NIH 3T3 cells. In words: subcellular eIF4E organization, confocal immunofluorescence and fractionation/Western. Format: cell-based, mouse. On the procedure:
NIH 3T3 mouse fibroblasts were maintained under subconfluent conditions in DMEM (GIBCO/BRL)/10% (vol/vol) FBS/2 mM […]/0.1 mg/ml penicillin-streptomycin, at 37° C. in 5% CO2. For cell treatments, drugs were dissolved in PBS (pH 7.4) and filter-sterilized. Untreated cells received filter-sterilized PBS.
Cells were washed with PBS, fixed in methanol for 20 min at −20° C., and blocked in PBS, 10% (vol/vol) FBS, and 0.1% (vol/vol) Tween 20 for 30 min at room temperature. Blocked cells were stained with primary antibodies against Nopp140 [1:50 (2)], Sc35 (1:50, Becton Dickinson), and eIF4E (1:50, Transduction Laboratories) in blocking solution for 3 h at room temperature. Upon washing with PBS, cells were stained with secondary antibodies in blocking solution for 30 min. FITC-conjugated donkey anti-rabbit antibody (Jackson ImmunoResearch), Texas red-conjugated donkey anti-mouse antibody, and FITC-conjugated rabbit anti-mouse antibody, as appropriate. […] Fluorescence was observed by using 100× optical magnification and 2× digital zoom using Leica TCS-SP confocal microscope using excitation wavelengths of 488, 568, or 351/364 nm. All channels were detected separately, with no observable crosstalk. […]
Cells were washed twice with PBS and lysed by slow pipetting in 0.14 M NaCl/10 mM Tris.HCl (pH 8.4)/1.5 mM MgCl2/0.5% (vol/vol) Nonidet P-40/1 mM DTT/100 units/ml RNasin (Promega) at 4° C. […] This yielded intact nuclei, as observed by using light microscopy, with no significant cytoplasmic contamination, as evaluated using tRNA^Lys and β-actin contents. […]
Protein from whole cells or nuclear and cytoplasmic fractions was extracted by using 0.15 M NaCl/50 mM Tris.HCl (pH 7.4)/1% (vol/vol) Nonidet P-40/0.25% (wt/vol) sodium deoxycholate/1 mM EDTA/1 mM PMSF by incubating for 30 min at 4° C. […] Bound antibodies were chemiluminescently detected by using horseradish peroxidase-conjugated secondary antibodies (Amersham Pharmacia) and SuperSignal West Pico reagent according to manufacturer's instructions (Pierce).

Assay [2] relates to cyclin D1 protein in NIH 3T3 cells. In words: Western blot of total extracts of treated cells. Format: cell-based, mouse. On the procedure: Protein concentrations were determined by using bicinchoninic acid-copper reduction (Pierce) and 20-μg aliquots were resolved using SDS/PAGE, transferred to Immobilon-P membrane (Millipore), blocked, and probed by using primary antibodies against eIF4E (1:5000, Transduction Laboratories), cyclin D1 (1:500, Becton Dickinson), β-actin (1:5000, Sigma), c-myc (1:1000, Becton Dickinson), and Sc35 (1:5000, Santa Cruz Biotechnology). Bound antibodies were chemiluminescently detected by using horseradish peroxidase-conjugated secondary antibodies (Amersham Pharmacia) and SuperSignal West Pico reagent according to manufacturer's instructions (Pierce).

Assay [3] has as its system cyclin D1 mRNA transport in NIH 3T3 cells. Nature of the assay: nucleocytoplasmic mRNA transport, fractionation with Northern / quantitative PCR. Format: cell-based, mouse. On the procedure:
Cells were washed twice with PBS and lysed by slow pipetting in 0.14 M NaCl/10 mM Tris.HCl (pH 8.4)/1.5 mM MgCl2/0.5% (vol/vol) Nonidet P-40/1 mM DTT/100 units/ml RNasin (Promega) at 4° C. Lysed suspensions were centrifuged at 1,000×g for 3 min at 4° C., and the supernatant was saved as the cytoplasmic fraction. Nuclear pellets were resuspended in lysis buffer, and 1/10th volume of 3.3% (wt/vol) sodium deoxycholate and 6.6% (vol/vol) Tween 40 was added under slow vortexing, and incubated at 4° C. for 5 min. Nuclei were sedimented by centrifugation at 1,000×g for 3 min at 4° C., and the supernatant (postnuclear fraction) was added to the cytoplasmic fraction. This yielded intact nuclei, as observed by using light microscopy, with no significant cytoplasmic contamination, as evaluated using tRNA^Lys and β-actin contents. Fractionated cytoplasm was free of nuclear contamination, as indicated by absence of U6 snRNA and Sc35.
RNA from whole cells or nuclear and cytoplasmic fractions was extracted by using Trizol according to manufacturer's instructions (GIBCO). Isolated RNAs were treated with RNase-free DNase I (Promega) and 5-1 μg aliquots were resolved on 1% formaldehydeagarose gel and transferred to a positively charged nylon membrane (Roche, Nutley, N.J.). Membranes were prehybridized in ULTRAhyb buffer (Ambion) and probed with 20 μM cyclin D1 cDNA probe, 5 μM β-actin cDNA probe, 30 μM biotinylated tRNA^Lys antisense oligo probe, and 30 μM biotinylated U6 small nuclear RNA antisense oligo probe. cDNA probes were biotinylated by using BrightStar psoralen-biotin and observed by using CDP Star chemiluminescence according to the manufacturer's instructions (Ambion). Band intensity and film response were quantified by using NIH IMAGE.
Cell pellets (500 mg) were homogenized in 1 ml of ice cold lysis buffer (20 mM Hepes/10 mM magnesium acetate/100 mM potassium acetate, pH 7.5) supplemented with protease inhibitors (EDTA-free Complete, Roche) and 400 units/ml of SUPERasine (Ambion), and incubated for 30 min on ice with occasional vortexing. Lysates were sedimented at 3,000×g for 10 min at 4° C. to pellet nuclei and cell debris. Supernatants were sedimented at 12,000×g for 20 min at 4° C. to pellet mitochondria. […] RNA content of fractions was ascertained by using the ratio of absorbance at 260:280 nm. […] RNA from each fraction was quantified by spectrophotometry and 40 ng was converted into cDNA by using the Sensiscript reverse transcription kit (Qiagen, Valencia, Calif.). Quantitative real-time PCR was carried out in triplicate by using the QuantiTect SYBR green real-time PCR Kit (Qiagen) in an Opticon thermal cycler (MJ Research, Waltham, Mass.). […] Obtained real-time PCR profiles were analyzed by using Opticon software (MJ Research).

In assay [4] the test system is 4E mediated apoptotic rescue. Nature of the assay: 4E mediated apoptotic rescue. As to conditions: FIG. 37. Format: cell-based.
The subject of another assay is liver metastatic disease. The note with it: Jeney et al. 2006; cited from earlier work.

Regarding `NC(=O)c1ncn([C@@H]2O[C@H](CO)[C@@H](O)[C@H]2O)n1` [Ribavirin, 1-β-D-ribofuranosyl-1,2,4-triazole-3-carboxamide], the EC50 in assay [1] (Mus musculus, NIH3T3, NIH 3T3, read-out: EC50 disruption of nuclear eIF4E bodies and cytoplasmic retention of eIF4E) is 100 to 1000 nM; in assay [2] (Mus musculus, NIH3T3, read-out: apparent EC50 reduction of cyclin D1 protein levels), 100 to 1000 nM; in assay [3] (Mus musculus, NIH3T3, NIH 3T3, read-out: apparent EC50 inhibition of nucleocytoplasmic cyclin D1 mRNA transport), around 1000 nM. Besides, the “concentration at which disruption of eIF4E nuclear bodies is evident” value in assay [1] (NIH 3T3, 48 h) worked out at 1 µM. Also, the “concentration at which disruption of eIF4E nuclear bodies is nearly complete” value in assay [1] (NIH 3T3, 48 h) came to 10 µM. Moreover, in assay [2], the “levels of B-actin and eIF4E proteins” value is recorded as “not reduced”. Also, the “nuclear retention of cyclin D1 mRNA” value in assay [3] (0.1 μM, quantitative real-time PCR) is given as 2 fold. The “concentration of nearly complete nuclear retention of cyclin D1 mRNA” value in assay [3] (NIH 3T3) turned out to be 100 µM. Moreover, the “nucleocytoplasmic transport of B-actin and VEGF mRNAs” value in assay [3] (at 100 uM) is listed as “not affected”. Further, the “effect on 4E mediated apoptotic rescue” value in assay [4] is given as “blocks”. Moreover, the “effect on liver metastatic disease” value in the assay with liver metastatic disease was “reduce liver metastatic disease”.

Usually EC50 stands for the concentration giving half of the maximal effect.
